Test results reported in US8859615B2, “Compounds, compositions and methods for reducing toxicity and treating or preventing diseases” (priority 2008, dated 2014).
Where two headings read alike, the source gives them in different places.

What was measured:
[1] = system: carrageenan-induced paw edema; experiment: Carrageenan-induced paw edema; type: in vivo, CD mice; conditions: FIG. 17; 10, 15, 20 mg/kg iv injection
Method: FIG. 17 compares the anti-inflammatory effect of Compound (D), acetylsalicylic acid (aspirin), and LIDEX against carrageenan-induced paw edema in CD mice. […] The first vertical bar in each set is the control. The second vertical bar in each set is acetylsalicylic acid (200 mg/kg, oral). The third vertical bar in each set is LIDEX cream administered locally, the fourth vertical bar in each set is Compound (D) (10 mg/kg iv injection), the fifth vertical bar in each set is Compound (D) (15 mg/kg iv injection), and the sixth vertical bar in each set is Compound (D) (20 mg/kg iv injection). 1% Carrageenan (20 μL, i.m., injected directly into the paw of CD mice to produce paw edema) was administered at time=0. Compound (D) was administered at 24 hours prior to the carrageenan injection, 1 hour prior to the carrageenan injection, and 6 hours after the carrageenan injection. Acetylsalicylic acid was administered at 1 hour prior to the carrageenan injection, and 6 hours after the carrageenan injection. LIDEX cream was administered at 1 hour prior to the carrageenan injection, and 6 hours after the carrageenan injection. * means P<0.05 and ** means P<0.01.
The comparisons are made by comparing the volumes of the inflamed pedis area (induced by a injection of a 1% carageenan solution) at different time points after the initial carageenan injection. […]

MX-1 mammary carcinoma = experiment: Cytotoxicity against solid tumor cells, CCK-8, 72 hrs (Table 4); type: cell-based; conditions: Homo sapiens
Method: (§1) Compounds are also evaluated against A-549 lung carcinoma and SK-OV-3 ovarian adenocarcinoma cell lines using the methodology as for Table 3. The potency order for the compounds may vary in different tumor cell lines. […] Absorbance was measured using a Powerwave XS microplate spectrophotometer.

HCT-116 colon carcinoma = experiment: as above; type: cell-based; conditions: Homo sapiens
Method: as §1

[2] = system: human mammary carcinoma MX-1 xenografts; conditions: 5FU 50 mg/kg i.v. QD×5
[3] = system: human colon carcinoma HCT-116 xenografts; conditions: mouse, in vivo
A-549 lung carcinoma = experiment: Cytotoxicity against solid tumor cells (Table 4); type: cell-based; conditions: Homo sapiens, A549, CCK-8, 72 hrs
Method: as §1

[4] = system: SK-OV-3 ovarian adenocarcinoma; experiment: Cytotoxicity against solid tumor cells (Table 4); type: cell-based; conditions: Homo sapiens, CCK-8, 72 hrs
Method: as §1

[5] = system: quinone reductase (NQO1) in Hepa 1c1c7 murine hepatoma cells; experiment: Phase 2 enzyme inducer activity (Prochaska microtiter plate bioassay)
Method: Pure panaxytriol was dissolved in dimethyl sulfoxide. Phase 2 enzyme inducer activity was measured using a rapid assay of activity of representative phase 2 enzyme in a cell line. This assay was originally developed by Prochaska and colleagues as in Prochaska H J, Santamaria A B, Talalay P. “Rapid detection of inducers of enzymes that protect against carcinogens.” Proc Natl Acad Sci US A 1992; 89:2394-2398, and has been further refined as in Fahey J W, Dinkova-Kostova A T, Stephenson K K, Talalay P. “The “Prochaska” microtiter plate bioassay for inducers of NQO1.” Methods Enzymol. 2004; 382:243-258, each of which are incorporated by reference in its entirety. Briefly, Hepa 1c1c7 murine hepatoma cells were grown in 96-well microtiter plates. Serial dilutions of the extracts or compounds which were assayed were added into the wells. After 48 hours, the cells were lysed and the activity of quinone reductase (NQO1) was assayed by the addition of a reaction mixture containing an NADPH-generating system, menadione and MTT. NQO1 catalyzes the reduction of menadione to menadiol by NADPH, and MTT is reduced nonenzymatically by menadiol, resulting in the formation of a blue color that can then be quantitated as in Prochaska H J, Santamaria A B. “Direct measurement of NAD(P)H:quinone reductase from cells cultured in microtiter wells: a screening assay for anticarcinogenic enzyme inducers.” Anal. Biochem. 1988; 169:328-336, which is incorporated by reference in its entirety. […] NQO1 activity and protein content of the lysate were measured in duplicate plates with an optical microtiter plate absorbance reader. […] One unit of inducer activity is defined as the amount that, when added to a single microtiter well, doubles the NQO1 specific activity. Sulforaphane and β-naphthoflavone were used as positive controls in each bioassay. […] NQO1 inducer activity was assayed as described herein, and is reported here as treated/control at different concentrations of ginseng extract or component per well. […] (+) Panaxytriol (molecular weight […]), (Δ) Protopanaxatriol (molecular weight 461), (◯) Korean red SUN GINSENG® extract. The reductase assay can also be performed as disclosed in PCT Publication No. WO 06/023821, the entire contents of which are hereby incorporated in the instant application.

[6] = system: human lymphoblastic leukemic T-cell growth; experiment: Cytotoxic activity relative to stability during storage at −20° C. in DMSO (Table 10); type: cell-based; conditions: Homo sapiens, CCRF-CEM, 72 h, XTT, 72 hr

SMILES | anti-inflammatory effect [1] | IC50 (MX-1 mammary carcinoma) | IC50 (HCT-116 colon carcinoma) | effect of co-treatment on acute body-weight decrease due to 5FU [2] | effect of co-treatment on therapeutic effect of 5FU [2] | effect of co-administration on iso-oxazole-fludelone toxicity (body weight) [3] | body weight retention during Isodehydelone treatment ([3]; po) | IC50 (A-549 lung carcinoma) | IC50 [4] | potency as an inducer relative to protopanxadiol or protopanaxatriol [5] | significant cytotoxicity observed above ([5]; Hepa 1c1c7 cells) | inducer potency ([5]; NQO1) | concentration of doubling (CD), average ([5]; NQO1, 48 hours) | IC50 ([6]; read-out: IC50 in μM CCRF-CEM, Table 10, Aug. 22, 2003 (Stored), same solution kept at −20° C. in DMSO) | IC50 ([6]; read-out: IC50 in μM CCRF-CEM, Table 10, Jul. 25, 2003 (Fresh)) | IC50 ([6]; read-out: IC50 in μM CCRF-CEM/VBL, Table 10, Aug. 22, 2003 (Stored), same solution kept at −20° C. in DMSO) | IC50 ([6]; read-out: IC50 in μM CCRF-CEM/VBL, Table 10, Jul. 25, 2003 (Fresh))
C=C[C@H](O)C#CC#CC[C@H]1OC(C)(C)O[C@@H]1CCCCCCC [Compound (D)] | mild, slow on-set, anti-inflammatory effect | 5.32 µM | 0.617 µM | did not significantly reduce | not significantly increased | significantly reduces iso-oxazole-fludelone toxicity | retained their body weight significantly better | 2.85 µM | 5.08 µM | – | – | – | – | – | – | – | –
C=C[C@@H](O)C#CC#CC[C@@H](O)[C@H](O)CCCCCCC [panaxytriol] | – | – | – | – | – | – | – | – | – | over 10 fold | above 0.5 μg/well | 5,760,000 U/g | 3.85 µM | 11 µM | 6.34 µM | 19.4 µM | 4.71 ± 0.73 µM
